Where a name gives a salt, the structure may show the parent alone. Read-outs that look alike come from different tables or passages of the source.
Tests used:
[1] = tested on: MT-4 cells (mock-infected); assay: cytotoxicity in mock-infected MT-4 cells (MTT); type: cell-based
Method: A rapid, sensitive and automated assay procedure was used for the in vitro evaluation of anti-HIV agents. […] Inhibition of the HIV-induced cytopathic effect was used as the end point. The viability of both HIV- and mock-infected cells was assessed spectrophotometrically via the in situ reduction of 3-(4,5-dimethylthiazol-2-yl)-2,5-diphenyltetrazolium bromide (MTT). […] The percent protection achieved by the compound in HIV-infected cells was calculated by the following formula: [formula]
(§1) whereby (ODT)HIV is the optical density measured with a given concentration of the test compound in HIV-infected cells; (ODC)HIV is the optical density measured for the control untreated HIV-infected cells: (ODC)MOCK is the optical density measured for the control untreated mock-infected cells; all optical density values were determined at 540 nm. […] The ratio of CC50 to IC50 was defined as the selectivity index (SI).

HIV-1 = assay: in vitro anti-HIV assay: inhibition of the HIV-induced cytopathic effect in MT-4 cells (MTT); type: cell-based; settings: dose achieving 50% protection of HIV-infected MT-4 cells against cytopathic effect, OD 540 nm
Method: A rapid, sensitive and automated assay procedure was used for the in vitro evaluation of anti-HIV agents. An […] T4-cell line, MT-4, which was previously shown (Koyanagi et al., Int. J. Cancer, 36, 445-451, 1985) to be highly susceptible to and permissive for HIV infection, served as the target cell line. Inhibition of the HIV-induced cytopathic effect was used as the end point. The viability of both HIV- and mock-infected cells was assessed spectrophotometrically via the in situ reduction of 3-(4,5-dimethylthiazol-2-yl)-2,5-diphenyltetrazolium bromide (MTT). […] The percent protection achieved by the compound in HIV-infected cells was calculated by the following formula: [formula]
as §1

[2] = 50% cytotoxic concentration, reduces absorbance of mock-infected MT-4 control by 50%, MTT, read-out: CC50

N#Cc1ccc(Nc2nccc(Nc3c(Cl)cccc3Cl)n2)cc1 [Compound 65]
CC50 [1]: 200 nM
IC50 (HIV-1): 180 nM

CCOC(=O)Nc1cc(Cc2c(Cl)cccc2Cl)nc(Nc2ccc(C#N)cc2)n1 [Compound 20]
CC50 [1]: 36500 nM
IC50 (HIV-1): 26 nM

Cc1cc(C)c(Nc2nccc(Nc3ccc(C#N)cc3)n2)c(C)c1 [Compound 93]
CC50 [1]: 48100 nM
IC50 (HIV-1): 3.5 nM

CC(=O)Nc1cc(Cc2c(Cl)cccc2Cl)nc(Nc2ccc(C#N)cc2)n1 [Compound 21]
CC50 [1]: 50600 nM
IC50 (HIV-1): 17 nM

N#Cc1ccc(Nc2nccc(Nc3c(Cl)cc(Br)c(Cl)c3Br)n2)cc1 [Compound 78]
CC50 [1]: 400 nM
IC50 (HIV-1): 2.8 nM

Nc1nc(Cc2c(Cl)cccc2Cl)cc(Nc2ccc(Br)cn2)n1 [Compound 31]
CC50 [1, 2]: 86800 nM
IC50 (HIV-1): 24 nM

Nc1cc(Cc2c(Cl)cccc2Cl)nc(Nc2ccc(Cl)cc2)n1 [Compound 29]
CC50 [1, 2]: > 20000 nM
IC50 (HIV-1): 15 nM

CNc1nc(Cc2c(Cl)cccc2Cl)cc(Nc2ccc(C#N)cc2)n1 [Compound 41]
CC50 [1, 2]: 34200 nM
IC50 (HIV-1): 1990 nM

Cc1cc(C)c(Nc2ccnc(Nc3ccc(C#N)c(N)c3)n2)c(C)c1 [Compound 102]
CC50 [1, 2]: 500 nM
IC50 (HIV-1): 8.2 nM

N#Cc1ccc(Nc2nccc(Oc3c(Cl)cc(Cl)cc3Cl)n2)cc1 [Compound 60]
CC50 [1]: > 100000 nM
IC50 (HIV-1): 290 nM

N#Cc1ccc(Nc2nc(Cc3c(Cl)cccc3Cl)cc(NCCc3ccccn3)n2)cc1 [Compound 16]
CC50 [1]: 41200 nM
IC50 (HIV-1): 389 nM

N#Cc1ccc(Nc2nc(Cc3c(Cl)cccc3Cl)cc(NCCc3cccs3)n2)cc1 [Compound 14]
CC50 [1]: 89000 nM
IC50 (HIV-1): 2180 nM

N#Cc1ccc(Nc2nc(Cc3c(Cl)cccc3Cl)cc(NCc3ccccc3)n2)cc1 [Compound 12]
CC50 [1]: 55100 nM
IC50 (HIV-1): 1680 nM

Cc1cnc(Nc2ccc(C#N)cc2)nc1Nc1c(C)cc(Br)cc1C [Compound 85]
CC50 [1]: 400 nM
IC50 (HIV-1): 2 nM

CCCCCCCCCCCC(=O)Nc1cc(Cc2c(Cl)cccc2Cl)nc(Nc2ccc(C#N)cc2)n1 [Compound 18]
CC50 [1]: 59900 nM
IC50 (HIV-1): 2100 nM

N#Cc1ccc(Nc2nccc(Nc3c(Cl)cc(OC(F)(F)F)cc3Cl)n2)cc1 [Compound 77]
CC50 [1]: 9600 nM
IC50 (HIV-1): 3 nM

Cc1cc(C)c(Nc2ccnc(Nc3ccc(F)cc3F)n2)c(C)c1 [Compound 97]
CC50 [1]: 13200 nM
IC50 (HIV-1): 32 nM

CC(C)OCCCNc1cc(Cc2c(Cl)cccc2Cl)nc(Nc2ccc(C#N)cc2)n1 [Compound 7]
CC50 [1]: > 100000 nM
IC50 (HIV-1): 975 nM

CC(C)c1cc(Br)c(Nc2ccnc(Nc3ccc(C#N)cc3)n2)c(Br)c1 [Compound 62]
CC50 [1]: 8700 nM
IC50 (HIV-1): 3.2 nM

COc1ccc(CCNc2cc(Cc3c(Cl)cccc3Cl)nc(Nc3ccc(C#N)cc3)n2)cc1 [Compound 10]
CC50 [1]: > 100000 nM
IC50 (HIV-1): 2530 nM

Cc1cc(C#N)cc(C)c1Oc1ccnc(Nc2ccc(C#N)cc2)n1 [Compound 81]
CC50 [1]: > 100000 nM
IC50 (HIV-1): 1.1 nM

Cc1cc(C)c(Sc2nc(Nc3ccc(C#N)cc3)ncc2C)c(C)c1 [Compound 86]
CC50 [1]: > 100000 nM
IC50 (HIV-1): 10 nM

Cc1cc(C)c(Nc2nc(Nc3ccc(C#N)cc3)ncc2C)c(C)c1 [Compound 63]
CC50 [1]: 300 nM
IC50 (HIV-1): 1.7 nM

N#Cc1ccc(Nc2nc(Cc3c(Cl)cccc3Cl)cc(NCCO)n2)cc1 [Compound 2]
CC50 [1]: > 100000 nM
IC50 (HIV-1): 35 nM

Cc1ccc(Nc2cc(Cc3c(Cl)cccc3Cl)nc(N)n2)cc1 [Compound 36]
CC50 [1, 2]: > 100000 nM
IC50 (HIV-1): 323 nM

Cc1cc(C)c(Nc2cc(N)nc(Nc3ccc(C#N)cc3)n2)c(C)c1 [Compound 94]
CC50 [1]: 11100 nM
IC50 (HIV-1): 2.2 nM

N#Cc1ccc(Nc2nc(Cc3c(Cl)cccc3Cl)cc(NCCCCO)n2)cc1 [Compound 1]
CC50 [1]: 49700 nM
IC50 (HIV-1): 27 nM

Cc1cnc(Nc2ccc(C#N)cc2)nc1Nc1c(C)cc(Cl)cc1C [Compound 82]
CC50 [1]: 400 nM
IC50 (HIV-1): 2.6 nM

Nc1nc(Cc2c(Cl)cccc2Cl)cc(Nc2ccc(Br)cc2)n1 [Compound 28]
CC50 [1, 2]: > 20000 nM
IC50 (HIV-1): 79 nM

Cc1c(Cc2c(Cl)cccc2Cl)nc(N)nc1Nc1ccc(C#N)cc1 [Compound 46]
CC50 [1, 2]: > 100000 nM
IC50 (HIV-1): 45200 nM

N#Cc1ccc(Nc2cc(N)nc(Cc3c(Cl)cccc3Cl)n2)cc1 [Compound 51]
CC50 [1]: > 100000 nM
IC50 (HIV-1): 452 nM

Cc1cccc(C)c1Nc1ccnc(Nc2ccc(C#N)cc2)n1 [Compound 57]
CC50 [1]: 800 nM
IC50 (HIV-1): 0.7 nM

Cc1cc(Cl)cc(Br)c1Oc1ccnc(Nc2ccc(C#N)cc2)n1 [Compound 74]
CC50 [1]: > 100000 nM
IC50 (HIV-1): 10 nM

Cc1cc(C)c(Nc2ccnc(Nc3ccc(Cl)cc3)n2)c(C)c1 [Compound 96]
CC50 [1]: 5800 nM
IC50 (HIV-1): 3.1 nM

Cc1cnc(Nc2ccc(C#N)cc2)nc1Nc1c(Br)cc(C(C)C)cc1Br [Compound 88]
CC50 [1]: 2100 nM
IC50 (HIV-1): 2.7 nM

N#Cc1ccc(Nc2cc(Cc3c(Cl)cccc3Cl)nc(NCCCO)n2)cc1 [Compound 42]
CC50 [1, 2]: 35500 nM
IC50 (HIV-1): 352 nM

Nc1nc(Cc2c(Cl)cccc2Cl)cc(Nc2ccccc2)n1 [Compound 38]
CC50 [1, 2]: 32400 nM
IC50 (HIV-1): 2450 nM

Cc1cc(C#N)cc(C)c1Nc1ccnc(Nc2ccc(C#N)cc2)n1 [Compound 69, 4-[[2-[(cyanophenyl)amino]-4-pyrimidinyl]amino]-3,5-dimethylbenzonitrile]
CC50 [1, 2]: 4700 nM
IC50 (HIV-1): 0.4 nM

CNc1cc(Cc2c(Cl)cccc2Cl)nc(Nc2ccc(C#N)cc2)n1 [Compound 24]
CC50 [1]: 54000 nM
IC50 (HIV-1): 20 nM

N#Cc1ccc(Nc2cc(Cc3c(Cl)cccc3Cl)nc(NCCO)n2)cc1 [Compound 40]
CC50 [1, 2]: 40200 nM
IC50 (HIV-1): 253 nM

Cc1c(Cc2c(Cl)cccc2Cl)nc(N)nc1Nc1ccc(Br)cc1 [Compound 48]
CC50 [1, 2]: > 100000 nM
IC50 (HIV-1): 44200 nM

Cc1c(N)nc(Nc2ccc(Br)cc2)nc1Cc1c(Cl)cccc1Cl [Compound 49]
CC50 [1, 2]: 45200 nM
IC50 (HIV-1): 58 nM

N#Cc1ccc(Nc2nccc(Nc3c(Cl)cc(C#N)cc3Cl)n2)cc1 [Compound 76]
CC50 [1]: 5200 nM
IC50 (HIV-1): 3.3 nM

N#Cc1ccc(Nc2cc(Oc3c(Cl)cccc3Cl)nc(N)n2)cc1 [Compound 50]
CC50 [1]: 52000 nM
IC50 (HIV-1): 518 nM

N#Cc1ccc(Nc2nc(Cc3c(Cl)cccc3Cl)cc(NCC(O)c3ccccc3)n2)cc1 (stereo not shown) [Compound 4]
CC50 [1]: > 100000 nM
IC50 (HIV-1): 315 nM

N#Cc1ccc(Nc2cc(Cc3c(Cl)cccc3Cl)nc(NCCCCO)n2)cc1 [Compound 43]
CC50 [1, 2]: > 100000 nM
IC50 (HIV-1): 603 nM

Nc1nc(Cc2c(Cl)cccc2Cl)cc(Nc2ccc(F)cc2)n1 [Compound 34]
CC50 [1, 2]: 57800 nM
IC50 (HIV-1): 319 nM

CCCC(=O)Nc1cc(Cc2c(Cl)cccc2Cl)nc(Nc2ccc(C#N)cc2)n1 [Compound 22]
CC50 [1]: 12200 nM
IC50 (HIV-1): 35 nM

CCCc1cc(Br)c(Nc2nc(Nc3ccc(C#N)cc3)ncc2C)c(Br)c1 [Compound 87]
CC50 [1]: 2200 nM
IC50 (HIV-1): 3.1 nM

N#Cc1ccc(Nc2nccc(NCc3ccccc3)n2)cc1 [Compound 104]
CC50 [1]: 18600 nM
IC50 (HIV-1): 3.4 nM

COc1cccc(CCNc2cc(Cc3c(Cl)cccc3Cl)nc(Nc3ccc(C#N)cc3)n2)c1 [Compound 8]
CC50 [1]: > 100000 nM
IC50 (HIV-1): 8150 nM

Cc1cc(Cl)cc(Cl)c1Nc1ccnc(Nc2ccc(C#N)cc2)n1 [Compound 68]
CC50 [1]: 1400 nM
IC50 (HIV-1): 1 nM

Cc1cc(C)c(Nc2ccnc(Nc3ccc(C#N)c(O)c3)n2)c(C)c1 [Compound 91]
CC50 [1]: 4900 nM
IC50 (HIV-1): 2.5 nM

Clc1cccc(Cl)c1Nc1ccnc(Nc2c(Cl)cccc2Cl)n1 [Compound 92]
CC50 [1]: > 90000 nM
IC50 (HIV-1): 45000 nM

Cc1cc(C)c(Nc2ccnc(Nc3ccc(C#N)cc3)n2)c(C)c1 [Compound 53, 4-[[4-[(2,4,6-trimethyl-phenyl)amino]-2-pyrimidinyl]amino]benzonitrile hydrochloride (1:1)]
CC50 [1, 2]: 1300 nM
IC50 (HIV-1): 0.6 nM

Cc1cc(C)c(N(C)c2ccnc(Nc3ccc(C#N)cc3)n2)c(C)c1 [Compound 71]
CC50 [1]: 45800 nM
IC50 (HIV-1): 6.3 nM

Cc1cc(Br)cc(C)c1Nc1ccnc(Nc2ccc(C#N)cc2)n1 [Compound 56]
CC50 [1]: 1900 nM
IC50 (HIV-1): 2.3 nM

Cc1cc(C)c(Nc2ccnc(Nc3ccc(C(N)=O)c(N)c3)n2)c(C)c1 [Compound 101]
CC50 [1]: 29500 nM
IC50 (HIV-1): 53 nM

N#Cc1ccc(Nc2nc(Cc3c(Cl)cccc3Cl)cc(NO)n2)cc1 [Compound 15, 4-[[4-[(2,6-dichloro-phenyl)methyl]-6-(hydroxyamino)-2-pyrimidinyl]amino]benzonitrile dihydrobromide.pentahydrate]
CC50 [1]: 9000 nM
IC50 (HIV-1): 3 nM

N#Cc1ccc(Nc2nccc(Sc3c(Cl)cccc3Cl)n2)cc1 [Compound 59]
CC50 [1]: > 100000 nM
IC50 (HIV-1): 1.2 nM

Cc1ccc(Nc2nc(N)cc(Cc3c(Cl)cccc3Cl)n2)cc1 [Compound 35]
CC50 [1, 2]: 42300 nM
IC50 (HIV-1): 103 nM

Cc1cnc(Nc2ccc(C#N)cc2)nc1Nc1c(C)cc(C#N)cc1C [Compound 83]
IC50 (HIV-1): 0.8 nM

N#Cc1ccc(Nc2nc(Cc3c(Cl)cccc3Cl)cc(NCCCN3CCCC3=O)n2)cc1 [Compound 5]
CC50 [1]: 56200 nM

From US6440986B2, “HIV Inhibiting pyrimidine derivatives” (Janssen Pharmaceutica, N.V., priority 1998, dated 2002)
